Data: patent publication US7208142B2, “Indanylidene compounds” (Symrise GmbH & Co. KG, priority 2000, dated 2007)

Tests used:
[1] = UV absorption of the compounds (E1/1 at λmax); format: physicochemical
[2] = Photostability: irradiation in a Suntester, concentration decrease of the UV filters; format: physicochemical
Excerpt: The values give the concentration decrease of the UV filters in percentage following irradiation (dose in J/cm^2).

[3] = formulation Example 1, 72 J/cm^2, 765 W/m^2
[4] = formulation Example 1, 144 J/cm^2, 765 W/m^2

| SMILES | λmax [1] | concentration decrease of the UV filter following irradiation [2, 3] | concentration decrease of the UV filter following irradiation [2, 4] | also measured |
| --- | --- | --- | --- | --- |
| COc1cc2c(cc1OC)C(C)(C)C/C2=C(/C#N)C(=O)C(C)(C)C [Example 1, 2-(5,6-Dimethoxy-3,3-dimethyl-1-indanylidene)-4,4-dimethyl-3-oxo-pentanonitrile] | 373 nm | – | – | – |
| COc1cc2c(cc1OC)C(C)(C)C/C2=C(/C#N)C(=O)C(C)(C)C [Example B1] | – | 2% | 3% | concentration decrease of the UV filter following irradiation ([2]; combination B1 + OMC, formulation Example 12, 72 J/cm^2): 2%; concentration decrease of the UV filter following irradiation ([2]; combination B1 + OMC, formulation Example 12, 144 J/cm^2): 3% |
| Cc1ccc2c(c1)/C(=C(\C#N)C(=O)C(C)(C)C)CC2(C)C [Example 4, 2-(3,3,6-trimethyl-1-indanylidene)-4,4-dimethyl-3-oxo-pentanonitrile] | 335/316 | – | – | E1/1 (specific extinction at λmax) [1]: 588/550 |
| COC(=O)/C(C#N)=C1\CC(C)(C)c2cc(OC)c(OCC(C)C[Si](C)(O[Si](C)(C)C)O[Si](C)(C)C)cc21 (stereo not shown) [Example A2] | – | 1% | 6% | concentration decrease of the UV filter following irradiation ([2]; combination A2 + OMC, formulation Example 12, 72 J/cm^2): 14%; concentration decrease of the UV filter following irradiation ([2]; combination A2 + OMC, formulation Example 12, 144 J/cm^2): 26% |
| COc1cc2c(cc1OC(C)=O)/C(=C(\C#N)C(=O)C(C)(C)C)CC2(C)C [Example 8, 2-(6-Acetoxy-3,3-dimethyl-5-methoxy-1-indanylidene)-4,4-dimethyl-3-oxo-pentanonitrile] | 355/302 | – | – | E1/1 (specific extinction at λmax) [1]: 420/280 |
| Cc1cc2c(cc1C)C(C)(C)C/C2=C(/C#N)C(=O)C(C)(C)C [Example 3, 2-(3,3,5,6-tetramethyl-1-indanylidene)-4,4-dimethyl-3-oxo-pentanonitrile] | 342 nm | – | – | – |
| CCCOC(=O)/C(C#N)=C1\CC(C)(C)c2cc(OC)c(OC)cc21 [Example A1] | – | 10% | 13% | concentration decrease of the UV filter following irradiation ([2]; combination A1 + OMC, formulation Example 12, 72 J/cm^2): 22%; concentration decrease of the UV filter following irradiation ([2]; combination A1 + OMC, formulation Example 12, 144 J/cm^2): 37% |
| COc1c(C)cc2c(c1C)C(C)(C)C/C2=C(/C#N)C(=O)C(C)(C)C [Example 2, 2-(5-Methoxy-3,3,4,6-tetramethyl-1-indanylidene)-4,4-dimethyl-3-oxo-pentanonitrile] | 340 nm | – | – | – |
